Test results: paper PMC9544090, “BioWF: A Naturally‐Fused, Di‐Domain Biocatalyst from Biotin Biosynthesis Displays an Unexpectedly Broad Substrate Scope” (Chembiochem, 2022)

Tests used:
CaBioWF [1] = biological target: T1, CaBioWF (Corynebacterium amycolatum, UniProt E2MUP3); assay: UV-Vis titration, PLP ketoenamine peak at […] nm, hyperbolic fit; assay type: binding
T1 construct: full-length natural di-domain fusion; synthetic gene in pET-28a, E. coli BL21(DE3); His tag removed by TEV; homodimer by SEC

O=C(O)CCCCCC(=O)O = assay: purified protein; details: BioW domain, CoASH 1 mM, ATP 1 mM, MgCl2 10 mM, pH 8, 30 °C
CaBioWF [2] = details: ATP 1 mM, CoASH 1 mM, MgCl2 5 mM, pH 8, 30 °C, 5 h; mutant mass 68567 Da printed, so tag probably kept

CaBioWF, sequence (DOC9544090_1 entry or part of it F192Y): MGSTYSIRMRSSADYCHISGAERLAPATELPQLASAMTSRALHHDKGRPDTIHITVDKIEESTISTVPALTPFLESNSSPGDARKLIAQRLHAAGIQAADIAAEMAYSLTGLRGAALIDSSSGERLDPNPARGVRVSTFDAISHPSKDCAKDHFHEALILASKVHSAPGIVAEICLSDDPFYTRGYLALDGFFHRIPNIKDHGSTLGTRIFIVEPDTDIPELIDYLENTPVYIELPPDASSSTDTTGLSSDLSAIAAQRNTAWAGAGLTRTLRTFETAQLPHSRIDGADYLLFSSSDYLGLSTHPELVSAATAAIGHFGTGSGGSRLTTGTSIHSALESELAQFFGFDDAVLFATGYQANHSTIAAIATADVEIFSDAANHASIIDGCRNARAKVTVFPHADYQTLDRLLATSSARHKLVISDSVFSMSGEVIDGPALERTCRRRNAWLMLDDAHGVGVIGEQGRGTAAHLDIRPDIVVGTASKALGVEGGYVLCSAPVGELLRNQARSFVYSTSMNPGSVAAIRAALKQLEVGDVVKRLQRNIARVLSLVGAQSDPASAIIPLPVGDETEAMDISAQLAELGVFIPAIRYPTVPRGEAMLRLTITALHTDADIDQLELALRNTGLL

In the case of `NCC(=O)O` [Gly], the Kd (CaBioWF [1]) is reported as 16.1 ± 1.95 mM.

“CaBioWF (Corynebacterium amycolatum SK46)” gave a Km (O=C(O)CCCCCC(=O)O) of 58.6 ± 3 µM and a kcat (O=C(O)CCCCCC(=O)O) of 0.21 s⁻¹.

With `O=C(O)CCCCCC(=O)O` [DC7, pimelic acid] the “HPLC of acyl-CoA product, 260 nm” value (CaBioWF [2]) was “acyl‐CoA product formation was only observed for the natural DC7 pimelic acid substrate”.

`C[C@H](N)C(=O)O` [ʟ‐Ala] gave a Kd (CaBioWF [1]) of 1.83 ± 0.25 mM.
